Values of other authors, collected in patent US6562757B1, “Plant-protection treatment of plants and compositions which can be used for this purpose” (Cerexagri S.A., priority 1999, dated 2003).

Conditions: pH 7

[Cu+2].[OH-].[OH-] [copper hydroxide]
amount of soluble aqueous copper (Cu2+(aq)) released: 1 to 10 mg/L

[Cl-].[Cu+2].[Cu+2].[OH-].[OH-].[OH-] [copper oxychloride]
amount of soluble aqueous copper (Cu2+(aq)) released: 1 to 10 mg/L
